Assay [1] has as its system NCI-H358-AMGR drug-resistant cell line. The assay is described as follows: NCI-H358-AMGR drug-resistant cell proliferation inhibitory activity test. The assay is classed as cell-based. The conditions noted are these: for IC50: 72 h, NCI-H358-AMGR drug-resistant cells, 3 days incubation, CellTiter-Glo. On the procedure: Test Example 6t Generation of NCI-H358-AMGR Drug-Resistant Cell Line
NCI-H358 cells were seeded and cultured at 50 to 70% confluence in six-well plate with RPMI-640 (10% FBS) medium at 37° C. with 5%4 CO2. AMG510 was added for induction at three starting concentrations of 1 nM, 10 nM and 50 nM, and the medium containing the same concentration of AMG510 was replaced every 3 days. Cells were passaged once they reached confluence. After every, two passages at a given concentration of drug, the concentration was increased in a 3-old increment until final concentrations of 1 μM for AMG510 was achieved.
(§1) NCI-H358-AMGR cells in logarithmic growth phase were collected and seeded into a clear-bottom 96-well plate at a density of 4×10^3 cells per well in 80 μL of medium, and then incubated overnight at 37° C. with 5% CO2. The compounds were serially diluted 5-fold in DMSO to obtain 8 concentrations, and then further diluted with RPMI-640) (10% FBS) cell culture medium to obtain the working solutions (5×), 20 μL of each working solution was added to the cell culture supernatant in each well, and the plate was further incubated for 3 days at 37° C. with 5% CO2. The plate was then equilibrated with CellTiter-Glo® reagent at room temperature (25° C.) for 10-30 minutes. After aspirating 50 μL of the medium, 50 μL of CellTiter-Glo®, reagent was added. The cells were thoroughly mixed with the CellTiter-Glo®, reagent using a microplate shaker for 2 minutes, and then incubated at room temperature for 10 minutes. The %-well plate was placed in a multi-mode microplate reader to record the luminescence values (RLU).
(§2) The inhibitory rate was calculated using the following formula: […]
Data were analyzed using GraphPad Prism for IC50 values (Note: The negative control refers to the group without inhibitor).

The subject of assay [2] is MIA PaCa-2-AMGR drug-resistant cell line. Briefly: MIA PaCa-2-AMGR drug-resistant cell proliferation inhibitory activity test. The assay is classed as cell-based. The conditions noted are these: for IC50: 72 h, MIA PaCa-2-AMGR drug-resistant cells, 3 days incubation, CellTiter-Glo. On the procedure:
Test Example 7: Generation of MIA PaCa-2-AMGR drug-resistant cell line
MIA PaCa-2 cells were seeded and cultured at 50 to 70% confluence in six-well plate with DMEM (10% FBS+2.5% horse serum) medium at 37° C. with 5% CO2. AMG510 was added for induction at three starting concentrations of 1 nM, 10 nM and 50 nM, and the medium containing the same concentration of AMG510 was replaced every 3 days. Cells were passaged once they reached confluence. After every two passages at a given concentration of drug, the concentration was increased in a 3-fold increment until final concentrations of 1 μM for AMG510 was achieved.
as §1, with “MIA PaCa-2-AMGR” for “NCI-H358-AMGR”, “DMEM” for “RPMI-640)”, “FBS+2.5% horse serum)” for “FBS)”, “CellTiter-Glo®” for “CellTiter-Glo®,”, “96-well” for “%-well”
as §2
Data were analyzed using GraphPad Prism for IC50 values (Note: The negative control refers to the group without inhibitor) The data were presented m Table 9

The test system of assay [3] is MIA PaCa-2 cells (KRAS G12C mutant). The assay is described as follows: MIA PaCa-2 cell anti-proliferation (CellTiter-Glo). Type of assay: cell-based. The conditions noted are these: Homo sapiens. On the procedure:
The number of viable cells was determined using the CellTiter-Glo® assay to evaluate the anti-proliferation efficacy of compounds. […] The compounds were serially diluted 4-fold in DMSO to obtain 9 concentrations, and then further diluted with DMEM (10% FBS+2.5% horse serum+1% penicillin/streptomycin) cell culture medium to obtain the working solutions (2×), 15 μL of each working solution was added to the cell culture supernatant in each well, and the cells were further incubated for 3 days at 37° C. with 5% CO2. The plate was then equilibrated with CellTiter-Glo® reagent at room temperature (25° C.) for 30 minutes. After adding 25 μL of CellTiter-Glo®, reagent, the cells were thoroughly mixed with the CellTiter-Glo® reagent using a microplate shaker for 2 minutes, and then incubated at room temperature for at least 30 minutes. […] Data were analyzed using GraphPad Prism for IC50 values (Note: The negative control refers to the group without inhibitor).

Assay [4] concerns the target PI3Kα (Homo sapiens (Human), UniProt P42336). The assay is described as follows: Inhibition of PI3Kα efficacy assay (ADP-Glo kinase assay). The assay is classed as biochemical. The conditions noted are these: read-out: PI3Kα inhibitory activity (IC50). The method in brief: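 Eight five-fold dilutions of compound (2 mM DMSO stock) tested; kinase reaction with PI and ATP ran 60 min at RT, followed by ADP-Glo and detection reagent steps of 40 min each. Four-parameter logistic fitting gave IC50 values.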
A general note: ADP-Glo first removes unused ATP, then detects ADP through luciferase.

Assay [5] concerns NCI-H358 cells (KRAS G12C mutant). Briefly: NCI-H358 cell proliferation inhibition (CellTiter-Glo). The assay is classed as cell-based. The note with it: Homo sapiens, NCI-H358, 72 h; H358 cells (G12C mutation), 3 days, Table 6; read-out: NCI-H358 (IC50).
Assay [6] addresses PI3Kδ (Homo sapiens (Human), UniProt O00329). Briefly: Inhibition of PI3Kδ efficacy assay (ADP-Glo kinase assay). The conditions noted are these: read-out: PI3Kδ inhibitory activity (IC50). The assay is classed as biochemical. In outline: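 Luminescent ADP-Glo readout of PI3Kδ: after a 60 min RT reaction with PI/ATP substrate, ATP depletion (40 min) and ADP detection (40 min) steps followed. Compounds tested as eight five-fold serial dilutions; inhibition rates fitted to log(inhibitor) vs. response, variable slope, for IC50.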

Setting [7] is: 72 h, MIA Paca-2 cells, 3 days, Table 7, read-out: MIA PaCa-2 (IC50).

Where two headings read alike, the source gives them in different places.

Chain of PI3Kα (P42336 whole entry): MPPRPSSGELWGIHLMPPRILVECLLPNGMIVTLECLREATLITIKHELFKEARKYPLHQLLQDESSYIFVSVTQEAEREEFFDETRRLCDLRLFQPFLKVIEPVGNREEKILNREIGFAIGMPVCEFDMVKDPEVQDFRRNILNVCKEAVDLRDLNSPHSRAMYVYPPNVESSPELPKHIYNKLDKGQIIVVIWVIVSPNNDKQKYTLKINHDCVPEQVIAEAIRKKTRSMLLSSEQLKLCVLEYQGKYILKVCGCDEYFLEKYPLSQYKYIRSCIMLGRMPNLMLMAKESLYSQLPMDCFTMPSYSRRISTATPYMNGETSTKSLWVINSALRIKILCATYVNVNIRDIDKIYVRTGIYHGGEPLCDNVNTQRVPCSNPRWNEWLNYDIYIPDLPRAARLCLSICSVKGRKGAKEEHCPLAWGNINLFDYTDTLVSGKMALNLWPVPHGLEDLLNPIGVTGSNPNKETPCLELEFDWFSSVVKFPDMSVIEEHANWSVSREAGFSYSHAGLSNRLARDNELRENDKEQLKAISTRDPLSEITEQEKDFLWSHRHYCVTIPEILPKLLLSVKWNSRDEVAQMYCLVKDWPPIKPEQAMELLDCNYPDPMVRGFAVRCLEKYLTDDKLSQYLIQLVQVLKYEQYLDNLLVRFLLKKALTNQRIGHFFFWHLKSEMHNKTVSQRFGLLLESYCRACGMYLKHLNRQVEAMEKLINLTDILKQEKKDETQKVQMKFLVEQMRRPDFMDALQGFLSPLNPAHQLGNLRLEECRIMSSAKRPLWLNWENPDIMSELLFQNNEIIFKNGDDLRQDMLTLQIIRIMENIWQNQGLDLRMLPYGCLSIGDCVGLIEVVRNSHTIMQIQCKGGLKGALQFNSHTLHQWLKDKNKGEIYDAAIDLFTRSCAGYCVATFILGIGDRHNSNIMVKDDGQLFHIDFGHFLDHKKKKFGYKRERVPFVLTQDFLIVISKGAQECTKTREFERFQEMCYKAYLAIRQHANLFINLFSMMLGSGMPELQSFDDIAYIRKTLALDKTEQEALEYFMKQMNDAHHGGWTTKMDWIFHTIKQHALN
Chain of PI3Kα (P27986 whole entry partner): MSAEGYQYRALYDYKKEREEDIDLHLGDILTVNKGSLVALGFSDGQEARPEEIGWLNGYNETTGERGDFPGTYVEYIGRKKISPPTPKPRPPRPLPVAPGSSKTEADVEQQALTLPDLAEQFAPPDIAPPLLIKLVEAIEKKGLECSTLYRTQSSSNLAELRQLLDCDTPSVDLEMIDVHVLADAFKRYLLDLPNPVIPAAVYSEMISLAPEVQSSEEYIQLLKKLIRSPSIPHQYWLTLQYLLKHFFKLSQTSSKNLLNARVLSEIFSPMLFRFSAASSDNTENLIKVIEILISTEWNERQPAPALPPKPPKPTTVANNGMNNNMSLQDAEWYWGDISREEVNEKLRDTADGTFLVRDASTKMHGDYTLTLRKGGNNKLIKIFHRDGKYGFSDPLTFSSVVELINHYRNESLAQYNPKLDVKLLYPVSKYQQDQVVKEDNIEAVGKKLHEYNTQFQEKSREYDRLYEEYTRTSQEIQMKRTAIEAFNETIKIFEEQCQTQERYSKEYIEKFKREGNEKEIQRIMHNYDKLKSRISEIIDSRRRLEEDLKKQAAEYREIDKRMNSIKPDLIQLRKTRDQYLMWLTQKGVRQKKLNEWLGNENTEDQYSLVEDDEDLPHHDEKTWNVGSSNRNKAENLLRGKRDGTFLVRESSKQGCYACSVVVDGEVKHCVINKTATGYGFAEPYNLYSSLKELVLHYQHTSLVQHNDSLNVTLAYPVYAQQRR
Chain of PI3Kδ (O00329 whole entry): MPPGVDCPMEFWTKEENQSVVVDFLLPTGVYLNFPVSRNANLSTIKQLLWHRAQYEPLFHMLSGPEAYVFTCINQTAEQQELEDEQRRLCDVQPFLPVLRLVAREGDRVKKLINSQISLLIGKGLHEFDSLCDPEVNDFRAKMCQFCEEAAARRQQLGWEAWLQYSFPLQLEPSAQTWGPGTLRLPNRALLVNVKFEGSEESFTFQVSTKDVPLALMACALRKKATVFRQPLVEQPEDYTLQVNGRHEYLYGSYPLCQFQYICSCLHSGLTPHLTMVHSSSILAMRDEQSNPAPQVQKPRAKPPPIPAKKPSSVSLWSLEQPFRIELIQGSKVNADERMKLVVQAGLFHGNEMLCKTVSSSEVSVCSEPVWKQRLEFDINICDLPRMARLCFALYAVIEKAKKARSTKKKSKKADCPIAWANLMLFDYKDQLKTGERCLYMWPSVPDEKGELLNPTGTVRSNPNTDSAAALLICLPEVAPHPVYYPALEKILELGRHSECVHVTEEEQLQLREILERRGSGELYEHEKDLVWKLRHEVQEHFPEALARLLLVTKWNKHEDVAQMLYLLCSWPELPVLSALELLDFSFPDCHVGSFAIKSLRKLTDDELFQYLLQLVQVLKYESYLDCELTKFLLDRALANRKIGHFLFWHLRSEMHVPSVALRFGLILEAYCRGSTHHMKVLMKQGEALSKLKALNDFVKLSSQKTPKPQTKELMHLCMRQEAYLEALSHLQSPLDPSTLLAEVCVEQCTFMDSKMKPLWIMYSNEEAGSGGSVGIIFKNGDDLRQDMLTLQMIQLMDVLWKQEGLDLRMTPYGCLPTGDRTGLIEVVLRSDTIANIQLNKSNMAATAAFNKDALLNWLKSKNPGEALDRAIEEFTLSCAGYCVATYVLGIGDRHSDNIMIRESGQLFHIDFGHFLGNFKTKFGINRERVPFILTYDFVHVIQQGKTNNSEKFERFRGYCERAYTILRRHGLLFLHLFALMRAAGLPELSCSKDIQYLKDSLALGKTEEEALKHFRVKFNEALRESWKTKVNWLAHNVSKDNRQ
Chain of PI3Kδ (P27986 whole entry partner): as the sequence (P27986 whole entry partner) above

What is called inhibition is how much of the control response was suppressed. Usually IC50 stands for the concentration needed to halve the response being measured. For the compound `C=CC(=O)N1CCN(c2nc(=O)n(-c3c(C)ccnc3C(C)C)c3nc(-c4c(O)cccc4F)c(F)cc23)[C@@H](C)C1` [AMG-510, reference compound], the inhibition at 10 µM was at most 50% in assay [1] (10 μM, NCI-H358-AMGR, read-out: inhibition rate at the maximum dose) and below 50% in assay [2] (10 μM, MIA PaCa-2-AMGR, read-out: inhibition rate at the maximum dose). Further, the IC50 in assay [1] and in assay [2] was above 10000 nM throughout.
Consider `CC(=O)/C=C/C(=O)N1CCN(c2ncnc3ccc(-c4cnc(OC(F)(F)F)c(NS(=O)(=O)c5ccc(F)cc5F)c4)nc23)CC1` [Example 226, (E)-2,4-difluoro-N-(5-(4-(4-(4-oxopent-2-enoyl)piperazin-1-yl)pyrido[3,2-d]pyrimidin-6-yl)-2-(trifluoro-methoxy)pyridin-3-yl)benzene-sulfonamide], for which the IC50 was 357 nM in assay [3] (setting [7]); 1.4 nM in assay [4] (Table 4); 248 nM in assay [5]; 359 nM in assay [1]; 424 nM in assay [2].
In the case of `COc1ncc(-c2ccc3ncnc(N4CCC5(CN(C(=O)/C=C/C(C)=O)C5)C4)c3c2)cc1NS(=O)(=O)c1ccc(F)cc1F` [Example 13, (E)-2,4-difluoro-N-(2-methoxy-5-(4-(2-(4-oxopent-2-enoyl)-2,6-diazaspiro[3.4]octan-4-yl)quinazolin-6-yl)pyridin-3-yl)benzenesulfonamide], the IC50 in assay [3] (setting [7]) came to 144 nM; in assay [5] it was 73.3 nM; in assay [2], 433 nM.
With `COc1ncc(-c2ccc3ncnc(N4CCN(C(=O)/C=C/C(C)=O)CC4)c3c2)cc1NS(=O)(=O)c1ccc(F)c2ccccc12` [Example 187, (E)-4-fluoro-N-(2-methoxy-5-(4-(4-(4-oxopent-2-enoyl)piperazin-1-yl)quinazolin-6-yl)pyridin-3-yl)naphthalene-1-sulfonamide], the IC50 in assay [3] (setting [7]) is 173 nM; in assay [4] (Table 4), 4.6 nM; in assay [5] it was 140 nM; in assay [1], 373 nM; in assay [2], 224 nM.
On to `COc1ncc(-c2ccc3ncnc(N4CCN(C(=O)/C=C/C(C)=O)C[C@@H]4C)c3c2)cc1NS(=O)(=O)c1ccc(F)cc1F` [Example 8, (S,E)-2,4-difluoro-N-(2-methoxy-5-(4-(2-methyl-4-(4-oxopent-2-enoyl)piperazin-1-yl)quinazolin-6-yl)pyridin-3-yl)benzenesulfonamide], for which the IC50 in assay [3] (setting [7]) came out at 73.6 nM; in assay [5] it was 91.2 nM; in assay [1], 81.6 nM; in assay [2], 250 nM.
With `C=C(C(=O)N1CCN(c2ncnc3ccc(-c4cnc(OC)c(NS(=O)(=O)c5ccc(F)cc5F)c4)cc23)CC1)C(C)O` (stereo not shown) [Example 167, 2,4-difluoro-N-(5-(4-(4-(3-hydroxy-2-methylenebutanoyl)piperazin-1-yl)quinazolin-6-yl)-2-methoxypyridin-3-yl)benzenesulfonamide], the IC50 in assay [3] (MIA PaCa-2, 72 h, read-out: MIA PaCa-2 (IC50, nM)) turned out to be 112 nM; in assay [4] (Table 4), 2.2 nM; in assay [5], 36.5 nM; in assay [1], 73 nM; in assay [6] (Table 4), 11.8 nM.
Take `C=C(F)C(=O)N1CCN(c2ncnc3ccc(-c4cnc(OC)c(NS(=O)(=O)c5ccc(F)cc5F)c4)cc23)CC1` [Example 59, 2,4-difluoro-N-(5-(4-(4-(2-fluoroacryloyl)piperazin-1-yl)quinazolin-6-yl)-2-methoxypyridin-3-yl)benzenesulfonamide]: the IC50 in assay [4] (Table 2) was 3.3 nM; in assay [5] it was 30.6 nM; in assay [6] (Table 2) it was 13.1 nM; in assay [2], 141 nM.
`COc1ncc(-c2ccc3ncnc(N4CCN(C(=O)/C=C/C(C)=O)CC4)c3c2)cc1NS(=O)(=O)c1c(C)cccc1F` [Example 186, (E)-2-fluoro-N-(2-methoxy-5-(4-(4-(4-oxopent-2-enoyl)piperazin-1-yl)quinazolin-6-yl)pyridin-3-yl)-6-methyl-benzene-sulfonamide]: the half-maximal inhibitory concentration (IC50) worked out at 52.9 nM in assay [3] (setting [7]); 2.4 nM in assay [4] (Table 4); 25.4 nM in assay [5]; 43.9 nM in assay [1]; 31.3 nM in assay [2].
On to `COc1ccc(S(=O)(=O)Nc2cc(-c3ccc4ncnc(N5CCN(C(=O)/C=C/C(C)=O)CC5)c4c3)cnc2OC)c(F)c1` [Example 185, (E)-2-fluoro-4-methoxy-N-(2-methoxy-5-(4-(4-(4-oxopent-2-enoyl)piperazin-1-yl)quinazolin-6-yl)pyridin-3-yl)benzene-sulfonamide], for which the IC50 came to 104 nM in assay [3] (setting [7]); 1.6 nM in assay [4] (Table 4); 69.4 nM in assay [5]; 131 nM in assay [1]; 45.7 nM in assay [2].
As for `COc1ncc(-c2ccc3ncnc(N4CCN(C(=O)/C=C/C(C)=O)CC4)c3n2)cc1NS(=O)(=O)c1c(C)cccc1F` [Example 229, (E)-2-fluoro-N-(2-methoxy-5-(4-(4-(4-oxopent-2-enoyl)piperazin-1-yl)pyrido[3,2-d]pyrimidin-6-yl)pyridin-3-yl)-6-methyl-benzene-sulfonamide], the IC50 was 40.8 nM in assay [3] (setting [7]); 3 nM in assay [4] (Table 4); 24 nM in assay [5]; 30 nM in assay [1]; 31.3 nM in assay [2].
Take `COc1ncc(-c2ccc3ncnc(N4CCN(C(=O)/C=C/C(C)=O)CC4)c3n2)cc1NS(=O)(=O)c1cnccc1C` [Example 223, (E)-N-(2-methoxy-5-(4-(4-(4-oxopent-2-enoyl)piperazin-1-yl)pyrido[3,2-d]pyrimidin-6-yl)pyridin-3-yl)-4-methyl-pyridine-3-sulfonamide]: the IC50 in assay [3] (setting [7]) was 94.4 nM; in assay [5], 135 nM; in assay [1], 85.2 nM; in assay [2] it was 63.1 nM.

For the origin of these results see patent publication US20250145589A1, “PYRIDINE DERIVATIVE AND USE THEREOF” (SICHUAN HUIYU PHARMACEUTICAL CO., LTD., priority 2021, published 2025).
